Test results published in patent US9603364B2 (Dow AgroSciences LLC, priority 2013, dated 2017).

How the values were obtained:
Assay in all cases: General post-emergent herbicidal activity, foliar application
Assay type in all cases: in vivo
[1] = test system: Chenopodium album L. (lambsquarters, common)
Summary of the method: (§1)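 Compounds in acetone/DMSO (97:3) were diluted into aqueous spray containing isopropyl alcohol, Atplus 411F crop oil and Triton X-155, then applied post-emergence to foliage at a top rate plus 1/2× to 1/16× serial dilutions. Injury was scored visually (0–100%) after 14 days in a sub-irrigated greenhouse versus untreated plants. GR20/GR50/GR80 were derived by probit analysis, with some GR80 values extrapolated from curve slope.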

[2] = test system: Amaranthus retroflexus L. (pigweed, redroot)
Summary of the method: as §1

[3] = test system: Euphorbia heterophylla L. (poinsettia, wild)
Summary of the method: as §1

[4] = test system: Echinochloa crus-galli (L.) Beauv. (barnyardgrass)
Summary of the method: as §1

[5] = test system: Helianthus annuus L. (sunflower, common)
Summary of the method: as §1

[6] = test system: Viola tricolor L. (pansy)
Summary of the method: as §1

[7] = test system: Zea mays L. (corn); details: 336 h, scored after 14 days, read-out: % Visual Growth Reduction ZEAMX
Summary of the method: (§2)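 Injury rated visually 14 days after treatment on a 0 (none) to 100% (complete kill) scale against untreated plants; greenhouse-grown, sub-irrigated to avoid wash-off. Foliar spray in aqueous acetone/DMSO with isopropanol, crop oil concentrate and Triton X-155, at a highest rate and 2-fold serial dilutions down to 1/16×.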

[8] = test system: Oryza sativa L. (rice); details: Oryza sativa, 336 h, scored after 14 days, read-out: % Visual Growth Reduction ORYSA
Summary of the method: as §2

[9] = calculated by probit analysis, dose for 80% visual injury, may be extrapolated

Nc1c(F)c(CF)nc(C(=O)O)c1Cl [Compound F36, 4-Amino-3-chloro-5-fluoro-6-(fluoromethyl)picolinic acid]
pest or weed control at 35 g/ha ([1]; Chenopodium album, 336 h, 35 g ai/ha, foliar post-emergent, scored after 14 days, read-out: % Visual Growth Reduction CHEAL): 80%
pest or weed control at 70 g/ha ([1]; Chenopodium album, 336 h, 70 g ai/ha, foliar post-emergent, scored after 14 days, read-out: % Visual Growth Reduction CHEAL): 100%
pest or weed control at 140 g/ha ([1]; Chenopodium album, 336 h, 140 g ai/ha, foliar post-emergent, scored after 14 days, read-out: % Visual Growth Reduction CHEAL): 100%
pest or weed control at 280 g/ha ([1]; Chenopodium album, 336 h, 280 g ai/ha, foliar post-emergent, scored after 14 days, read-out: % Visual Growth Reduction CHEAL): 100%
GR80 Value CHEAL [1, 9]: 36.1 g ai/ha
pest or weed control at 35 g/ha ([2]; Amaranthus retroflexus, 336 h, 35 g ai/ha, foliar post-emergent, scored after 14 days, read-out: % Visual Growth Reduction AMARE): 100%
pest or weed control at 70 g/ha ([2]; Amaranthus retroflexus, 336 h, 70 g ai/ha, foliar post-emergent, scored after 14 days, read-out: % Visual Growth Reduction AMARE): 100%
pest or weed control at 140 g/ha ([2]; Amaranthus retroflexus, 336 h, 140 g ai/ha, foliar post-emergent, scored after 14 days, read-out: % Visual Growth Reduction AMARE): 100%
pest or weed control at 280 g/ha ([2]; Amaranthus retroflexus, 336 h, 280 g ai/ha, foliar post-emergent, scored after 14 days, read-out: % Visual Growth Reduction AMARE): 100%
GR80 Value AMARE [2, 9]: <17.5 g ai/ha
pest or weed control at 35 g/ha ([3]; Euphorbia heterophylla, 336 h, 35 g ai/ha, foliar post-emergent, scored after 14 days, read-out: % Visual Growth Reduction EPHHL): 100%
pest or weed control at 70 g/ha ([3]; Euphorbia heterophylla, 336 h, 70 g ai/ha, foliar post-emergent, scored after 14 days, read-out: % Visual Growth Reduction EPHHL): 100%
pest or weed control at 140 g/ha ([3]; Euphorbia heterophylla, 336 h, 140 g ai/ha, foliar post-emergent, scored after 14 days, read-out: % Visual Growth Reduction EPHHL): 100%
pest or weed control at 280 g/ha ([3]; Euphorbia heterophylla, 336 h, 280 g ai/ha, foliar post-emergent, scored after 14 days, read-out: % Visual Growth Reduction EPHHL): 100%
GR80 Value EPHHL [3, 9]: <17.5 g ai/ha
pest or weed control at 35 g/ha ([4]; Echinochloa crus-galli, 336 h, 35 g ai/ha, foliar post-emergent, scored after 14 days, read-out: % Visual Growth Reduction ECHCG): 50%
pest or weed control at 70 g/ha ([4]; Echinochloa crus-galli, 336 h, 70 g ai/ha, foliar post-emergent, scored after 14 days, read-out: % Visual Growth Reduction ECHCG): 50%
pest or weed control at 140 g/ha ([4]; Echinochloa crus-galli, 336 h, 140 g ai/ha, foliar post-emergent, scored after 14 days, read-out: % Visual Growth Reduction ECHCG): 80%
pest or weed control at 280 g/ha ([4]; Echinochloa crus-galli, 336 h, 280 g ai/ha, foliar post-emergent, scored after 14 days, read-out: % Visual Growth Reduction ECHCG): 95%
GR80 Value ECHCG [4, 9]: 132 g ai/ha
pest or weed control at 35 g/ha ([5]; Helianthus annuus, 336 h, 35 g ai/ha, foliar post-emergent, scored after 14 days, read-out: % Visual Growth Reduction HELAN): 70%
pest or weed control at 70 g/ha ([5]; Helianthus annuus, 336 h, 70 g ai/ha, foliar post-emergent, scored after 14 days, read-out: % Visual Growth Reduction HELAN): 80%
pest or weed control at 140 g/ha ([5]; Helianthus annuus, 336 h, 140 g ai/ha, foliar post-emergent, scored after 14 days, read-out: % Visual Growth Reduction HELAN): 85%
pest or weed control at 280 g/ha ([5]; Helianthus annuus, 336 h, 280 g ai/ha, foliar post-emergent, scored after 14 days, read-out: % Visual Growth Reduction HELAN): 90%
GR80 Value HELAN [5, 9]: 70 g ai/ha
pest or weed control at 35 g/ha ([6]; Viola tricolor, 336 h, 35 g ai/ha, foliar post-emergent, scored after 14 days, read-out: % Visual Growth Reduction VIOTR): 10%
pest or weed control at 70 g/ha ([6]; Viola tricolor, 336 h, 70 g ai/ha, foliar post-emergent, scored after 14 days, read-out: % Visual Growth Reduction VIOTR): 20%
pest or weed control at 140 g/ha ([6]; Viola tricolor, 336 h, 140 g ai/ha, foliar post-emergent, scored after 14 days, read-out: % Visual Growth Reduction VIOTR): 80%
pest or weed control at 280 g/ha ([6]; Viola tricolor, 336 h, 280 g ai/ha, foliar post-emergent, scored after 14 days, read-out: % Visual Growth Reduction VIOTR): 75%
GR80 Value VIOTR [6, 9]: 246 g ai/ha
plant injury at 35 g/ha ([7]; 35 g ai/ha): 0%
plant injury at 70 g/ha ([7]; 70 g ai/ha): 20%
plant injury at 140 g/ha ([7]; 140 g ai/ha): 40%
plant injury at 280 g/ha ([7]; 280 g ai/ha): 70%
plant injury at 35 g/ha ([8]; 35 g ai/ha): 0%
plant injury at 70 g/ha ([8]; 70 g ai/ha): 10%
plant injury at 140 g/ha ([8]; 140 g ai/ha): 20%
plant injury at 280 g/ha ([8]; 280 g ai/ha): 30%

COC(=O)c1nc(C(C)CF)c(F)c(N)c1Cl (stereo not shown) [Compound F37, methyl 4-amino-3-chloro-5-fluoro-6-(1-fluoropropan-2-yl)picolinate]
pest or weed control at 132 g/ha ([1]; Chenopodium album, 336 h, 132 g ai/ha, foliar post-emergent, scored after 14 days, read-out: % Visual Growth Reduction CHEAL): 0%
pest or weed control at 132 g/ha ([2]; Amaranthus retroflexus, 336 h, 132 g ai/ha, foliar post-emergent, scored after 14 days, read-out: % Visual Growth Reduction AMARE): 50%
pest or weed control at 132 g/ha ([3]; Euphorbia heterophylla, 336 h, 132 g ai/ha, foliar post-emergent, scored after 14 days, read-out: % Visual Growth Reduction EPHHL): 100%
pest or weed control at 132 g/ha ([4]; Echinochloa crus-galli, 336 h, 132 g ai/ha, foliar post-emergent, scored after 14 days, read-out: % Visual Growth Reduction ECHCG): 0%
pest or weed control at 132 g/ha ([5]; Helianthus annuus, 336 h, 132 g ai/ha, foliar post-emergent, scored after 14 days, read-out: % Visual Growth Reduction HELAN): 80%
pest or weed control at 132 g/ha ([6]; Viola tricolor, 336 h, 132 g ai/ha, foliar post-emergent, scored after 14 days, read-out: % Visual Growth Reduction VIOTR): 0%
plant injury at 132 g/ha ([7]; 132 g ai/ha): 0%
plant injury at 132 g/ha ([8]; 132 g ai/ha): 0%
